Assays:
[1] = refractive index (Na D-line) (dimensionless); xn = mol fraction of the nth substance listed; details: 99 kPa, Liquid, Abbe refractometer
[2] = relative permittivity at various frequencies (dimensionless); xn = mol fraction of the nth substance listed; details: 99 kPa, Liquid, Frequency=2 MHz, Parallel plate capacitor

CC(C)(C)Cl [2-chloro-2-methylpropane] + CCCCCCC
Details | refractive index, 283.15 K | refractive index, 298.15 K | refractive index, 313.15 K | relative permittivity, 283.15 K | relative permittivity, 298.15 K | relative permittivity, 313.15 K
[1], x2 = 0 | 1.39115 | 1.38225 | 1.37312 | – | – | –
[1], x2 = 0.0511 | 1.39054 | 1.38172 | 1.37267 | – | – | –
[1], x2 = 0.0962 | 1.39025 | 1.38149 | 1.37249 | – | – | –
[1], x2 = 0.1985 | 1.38996 | 1.3813 | 1.37238 | – | – | –
[1], x2 = 0.2955 | 1.38988 | 1.38132 | 1.37254 | – | – | –
[1], x2 = 0.3985 | 1.39001 | 1.38159 | 1.37294 | – | – | –
[1], x2 = 0.4985 | 1.39024 | 1.38196 | 1.37347 | – | – | –
[1], x2 = 0.5996 | 1.39059 | 1.38244 | 1.37414 | – | – | –
[1], x2 = 0.7039 | 1.39105 | 1.38306 | 1.37492 | – | – | –
[1], x2 = 0.8032 | 1.39164 | 1.38375 | 1.37573 | – | – | –
[1], x2 = 0.9039 | 1.39225 | 1.38447 | 1.37653 | – | – | –
[1], x2 = 0.9618 | 1.39267 | 1.38492 | 1.37703 | – | – | –
[2], x2 = 0 | – | – | – | 10.429 | 9.67 | 8.952
[2], x2 = 0.0506 | – | – | – | 9.787 | 9.1 | 8.449
[2], x2 = 0.1035 | – | – | – | 9.109 | 8.485 | 7.907
[2], x2 = 0.2006 | – | – | – | 7.895 | 7.373 | 6.892
[2], x2 = 0.3012 | – | – | – | 6.721 | 6.293 | 5.932
[2], x2 = 0.3976 | – | – | – | 5.754 | 5.41 | 5.118
[2], x2 = 0.504 | – | – | – | 4.827 | 4.566 | 4.34
[2], x2 = 0.6015 | – | – | – | 4.103 | 3.914 | 3.747
[2], x2 = 0.6988 | – | – | – | 3.472 | 3.341 | 3.226
[2], x2 = 0.8014 | – | – | – | 2.905 | 2.819 | 2.749
[2], x2 = 0.9027 | – | – | – | 2.407 | 2.359 | 2.322
[2], x2 = 0.9444 | – | – | – | 2.209 | 2.173 | 2.144

CCCCCl [1-chlorobutane] + CCCCCC
Details | refractive index, 283.15 K | refractive index, 298.15 K | refractive index, 313.15 K | relative permittivity, 283.15 K | relative permittivity, 298.15 K | relative permittivity, 313.15 K
[1], x2 = 0 | 1.4075 | 1.3995 | 1.39131 | – | – | –
[1], x2 = 0.0534 | 1.40565 | 1.39762 | 1.38941 | – | – | –
[1], x2 = 0.1022 | 1.404 | 1.39595 | 1.38772 | – | – | –
[1], x2 = 0.2056 | 1.40063 | 1.39253 | 1.38428 | – | – | –
[1], x2 = 0.3039 | 1.39755 | 1.38941 | 1.38115 | – | – | –
[1], x2 = 0.3985 | 1.39477 | 1.38661 | 1.37832 | – | – | –
[1], x2 = 0.5023 | 1.39187 | 1.38367 | 1.37537 | – | – | –
[1], x2 = 0.6042 | 1.38921 | 1.38099 | 1.37267 | – | – | –
[1], x2 = 0.7026 | 1.38679 | 1.37855 | 1.37024 | – | – | –
[1], x2 = 0.8041 | 1.38445 | 1.37621 | 1.36788 | – | – | –
[1], x2 = 0.9082 | 1.38227 | 1.37401 | 1.3657 | – | – | –
[1], x2 = 0.9471 | 1.3815 | 1.37324 | 1.36493 | – | – | –
[2], x2 = 0 | – | – | – | 7.552 | 7.157 | 6.757
[2], x2 = 0.0476 | – | – | – | 7.176 | 6.821 | 6.456
[2], x2 = 0.0989 | – | – | – | 6.775 | 6.461 | 6.13
[2], x2 = 0.1968 | – | – | – | 6.057 | 5.8 | 5.526
[2], x2 = 0.3016 | – | – | – | 5.335 | 5.13 | 4.901
[2], x2 = 0.3968 | – | – | – | 4.722 | 4.553 | 4.37
[2], x2 = 0.5024 | – | – | – | 4.101 | 3.968 | 3.824
[2], x2 = 0.6034 | – | – | – | 3.567 | 3.458 | 3.348
[2], x2 = 0.6982 | – | – | – | 3.11 | 3.027 | 2.94
[2], x2 = 0.808 | – | – | – | 2.63 | 2.567 | 2.506
[2], x2 = 0.9029 | – | – | – | 2.259 | 2.217 | 2.176
[2], x2 = 0.9447 | – | – | – | 2.103 | 2.07 | 2.04

From the NIST ThermoML archive (doi:10.1016/j.jct.2015.03.001)
